Results published in article PMC9232501, “Results of the phase I CCTG IND.231 trial of CX-5461 in patients with advanced solid tumors enriched for DNA-repair deficiencies” (Nature Communications, 2022).
Where “and” joins values, the source holds several entries; their conditions need not be identical. Equal entries are not always repeated.

Tests used:
XPA knockout HAP1 cells = assay: HAP1 XPA knockout cytotoxicity (WST-1 assay) with and without UVA; format: cell-based; conditions: for WST-1 raw signal (Figure 5h): replicates
Description: (§1) Fig. 5 Comparison of G4 ligand photosensitization. […] Vertical axis, fractional survival, horizontal axis log10 drug concentration (M) (f) Representative images of CPD immunofluorescent staining under UV and drug treatment conditions for U2OS cells, quantified from biological duplicates in (g) (h) Scale bar = 100um. U2OS cells were treated with drug or vehicle control, then immediately irradiated with UVA 125 mJ/cm^2; and fixed 1 h later for immunofluorescence staining with CPD antibody. g Distribution of mean intensity of CPD level per cell (total n = in labels), with two biological repeats per condition. Vertical axis, mean CPD intensity per cell, horizontal axis, conditions (h) WT or KO XPA HAP1 cells assayed for cytotoxicity. Vertical axis, fractional survival (WST-1 assay). The horizontal axis, log10 drug concentration (M). Error bars = standard deviation of the mean. Three biological repeats per condition.
(§2) Human epidermal keratinocytes (HEKa) cells were sourced from Thermo Fisher Scientific, and were grown in EpiLife™ Medium with HKGS. HAP WT and XPA knockout cell lines (Horizon Discovery) were cultured in IMDM, 10% FCS. Human HCT116 cells, U2OS cells (ATCC) were grown in McCoy’s 5 A medium with 10% FBS and L-glutamine. All cell lines are mycoplasma free and have been authenticated by STR or SNP profiling. CX-5461 was provided by Senhwa Biosciences, Inc. PDS is from Sigma-Aldrich, BRACO-19 from Alfa Chemistry, PhENDC3 is from Sigma-Aldrich, γ -H2AX antibody from Abcam (1:1000 for IF) and CPD antibody (1:1500) from Cosmo Bio Ltd. (Catalog number: CAC-NM-DAD-001). The WST-1 assay was performed as previously described, γ H2AX foci staining was performed as previously described. Immunofluorescence staining of CPD was performed according to the protocol from the manufacturer (Cosmo Bio Ltd).

HCT116 cells = assay: HCT116 cytotoxicity (WST-1 assay) with and without UVA radiation; format: cell-based, Human
Description: as §1, §2

advanced solid tumors = assay: Efficacy assessment by RECIST 1.1 (best response, ORR, DCR, duration of response); format: in vivo, human
Description: Computed tomography of chest, abdomen, and pelvis was performed at baseline and every 8 weeks and as clinically indicated. All patients who had at least one post-baseline scan were included in efficacy analyses; patients with the non-target disease only were assessed for non-CR/non-PD and PD. Patients were evaluated for CR, PR, SD, or PD as defined by RECIST 1.1[23]. The objective response rate (ORR = CR+PR) and disease control rate (DCR = CR + PR + SD ≥ 6 months) are reported. Duration of response was defined as the time from when CR or PR was first documented until the first date that progressive disease was objectively documented or the time of the last disease assessment.

Cc1cnc(CNC(=O)c2c(=O)c3ccc(N4CCCN(C)CC4)nc3n3c2sc2ccccc23)cn1 [CX-5461]
WST-1 raw signal (Figure 5h) (XPA knockout HAP1 cells; conc 1.00E-07, 125 mJ/cm2 XPA): 0.1279 and 0.1288
WST-1 raw signal (Figure 5h) (XPA knockout HAP1 cells; conc 1.00E-07, XPA No UV): 0.1234 and 0.1195
WST-1 raw signal (Figure 5h) (XPA knockout HAP1 cells; conc 1.25E-08, 125 mJ/cm2 XPA): 0.1288 and 0.1302
WST-1 raw signal (Figure 5h) (XPA knockout HAP1 cells; conc 1.25E-08, XPA No UV): 3.2483 and 2.9851
WST-1 raw signal (Figure 5h) (XPA knockout HAP1 cells; conc 1.56E-09, 125 mJ/cm2 XPA): 0.1344 and 0.1335
WST-1 raw signal (Figure 5h) (XPA knockout HAP1 cells; conc 1.56E-09, XPA No UV): 3.436 and 3.4453
WST-1 raw signal (Figure 5h) (XPA knockout HAP1 cells; conc 2.00E-07, 125 mJ/cm2 XPA): 0.0895 and 0.1298
WST-1 raw signal (Figure 5h) (XPA knockout HAP1 cells; conc 2.00E-07, XPA No UV): 0.1255 and 0.1238
WST-1 raw signal (Figure 5h) (XPA knockout HAP1 cells; conc 2.50E-08, 125 mJ/cm2 XPA): 0.1291 and 0.1284
WST-1 raw signal (Figure 5h) (XPA knockout HAP1 cells; conc 2.50E-08, XPA No UV): 0.4389 and 0.6241
WST-1 raw signal (Figure 5h) (XPA knockout HAP1 cells; conc 3.13E-09, 125 mJ/cm2 XPA): 0.128 and 0.1287
WST-1 raw signal (Figure 5h) (XPA knockout HAP1 cells; conc 3.13E-09, XPA No UV): 3.4207 and 3.5618
WST-1 raw signal (Figure 5h) (XPA knockout HAP1 cells; conc 3.91E-10, 125 mJ/cm2 XPA): 2.554 and 2.4891
WST-1 raw signal (Figure 5h) (XPA knockout HAP1 cells; conc 3.91E-10, XPA No UV): 3.4121 and 3.399
WST-1 raw signal (Figure 5h) (XPA knockout HAP1 cells; conc 5.00E-08, 125 mJ/cm2 XPA): 0.1275 and 0.1296
WST-1 raw signal (Figure 5h) (XPA knockout HAP1 cells; conc 5.00E-08, XPA No UV): 0.1252 and 0.1218
WST-1 raw signal (Figure 5h) (XPA knockout HAP1 cells; conc 6.25E-09, 125 mJ/cm2 XPA): 0.1286 and 0.1316
WST-1 raw signal (Figure 5h) (XPA knockout HAP1 cells; conc 6.25E-09, XPA No UV): 3.488 and 3.4015
WST-1 raw signal (Figure 5h) (XPA knockout HAP1 cells; conc 7.81E-10, 125 mJ/cm2 XPA): 0.5854 and 0.7406
WST-1 raw signal (Figure 5h) (XPA knockout HAP1 cells; conc 7.81E-10, XPA No UV): 3.4022 and 3.4603
effect of UVA radiation on cytotoxicity (XPA knockout HAP1 cells; with UVA): to a greater extent in XPA knockout cells
WST-1 reading (source data of fractional survival) (HCT116 cells; 1.00E-07 M, 5mJ/cm2 UV): 0.1726 and 0.1634
WST-1 reading (source data of fractional survival) (HCT116 cells; 1.00E-07 M, 125 mJ/cm2 UV): 0.1356 and 0.1403
WST-1 reading (source data of fractional survival) (HCT116 cells; 1.00E-07 M, no UV): 0.3459 and 0.3709
WST-1 reading (source data of fractional survival) (HCT116 cells; 1.25E-08 M, 5mJ/cm2 UV): 1.8446 and 1.2623
WST-1 reading (source data of fractional survival) (HCT116 cells; 1.25E-08 M, 125 mJ/cm2 UV): 0.2266 and 0.2178
WST-1 reading (source data of fractional survival) (HCT116 cells; 1.25E-08 M, no UV): 2.7124 and 3.0988
WST-1 reading (source data of fractional survival) (HCT116 cells; 1.56E-09 M, 5mJ/cm2 UV): 3.1522 and 3.1435
WST-1 reading (source data of fractional survival) (HCT116 cells; 1.56E-09 M, 125 mJ/cm2 UV): 1.3637 and 1.8262
WST-1 reading (source data of fractional survival) (HCT116 cells; 1.56E-09 M, no UV): 3.1762 and 3.2869
WST-1 reading (source data of fractional survival) (HCT116 cells; 2.00E-07 M, 5mJ/cm2 UV): 0.1417 and 0.1383
WST-1 reading (source data of fractional survival) (HCT116 cells; 2.00E-07 M, 125 mJ/cm2 UV): 0.1411 and 0.1324
WST-1 reading (source data of fractional survival) (HCT116 cells; 2.00E-07 M, no UV): 0.3331 and 0.2744
WST-1 reading (source data of fractional survival) (HCT116 cells; 2.50E-08 M, 5mJ/cm2 UV): 0.4834 and 0.4002
WST-1 reading (source data of fractional survival) (HCT116 cells; 2.50E-08 M, 125 mJ/cm2 UV): 0.1513 and 0.1801
WST-1 reading (source data of fractional survival) (HCT116 cells; 2.50E-08 M, no UV): 2.611 and 2.0841
WST-1 reading (source data of fractional survival) (HCT116 cells; 3.13E-09 M, 5mJ/cm2 UV): 2.2833 and 2.9624
WST-1 reading (source data of fractional survival) (HCT116 cells; 3.13E-09 M, 125 mJ/cm2 UV): 0.7443 and 0.527
WST-1 reading (source data of fractional survival) (HCT116 cells; 3.13E-09 M, no UV): 3.0831 and 3.1401
WST-1 reading (source data of fractional survival) (HCT116 cells; 3.91E-10 M, 5mJ/cm2 UV): 3.2465 and 3.2794
WST-1 reading (source data of fractional survival) (HCT116 cells; 3.91E-10 M, 125 mJ/cm2 UV): 2.6106 and 3.2813
WST-1 reading (source data of fractional survival) (HCT116 cells; 3.91E-10 M, no UV): 3.2563 and 3.2975
WST-1 reading (source data of fractional survival) (HCT116 cells; 5.00E-08 M, 5mJ/cm2 UV): 0.1995 and 0.2071
WST-1 reading (source data of fractional survival) (HCT116 cells; 5.00E-08 M, 125 mJ/cm2 UV): 0.1444 and 0.1401
WST-1 reading (source data of fractional survival) (HCT116 cells; 5.00E-08 M, no UV): 0.8754 and 0.871
WST-1 reading (source data of fractional survival) (HCT116 cells; 6.25E-09 M, 5mJ/cm2 UV): 2.1762 and 2.4422
WST-1 reading (source data of fractional survival) (HCT116 cells; 6.25E-09 M, 125 mJ/cm2 UV): 0.3527 and 0.3295
WST-1 reading (source data of fractional survival) (HCT116 cells; 6.25E-09 M, no UV): 2.9424 and 3.2905
WST-1 reading (source data of fractional survival) (HCT116 cells; 7.81E-10 M, 5mJ/cm2 UV): 3.2172 and 3.1228
WST-1 reading (source data of fractional survival) (HCT116 cells; 7.81E-10 M, 125 mJ/cm2 UV): 2.9376 and 2.9926
WST-1 reading (source data of fractional survival) (HCT116 cells; 7.81E-10 M, no UV): 3.2642 and 3.2669
potentiation of UVA-induced cytotoxicity (HCT116 cells; UV 5 mJ/cm^2 and 125 mJ/cm^2): Strong potentiation
patients with confirmed PR (advanced solid tumors; 3 breast, 1 ovarian, all with germline DNA-repair abnormalities): Four
overall DCR (CR + PR + SD ≥ 6 months) (advanced solid tumors; 8/40, 95% CI: 9.1–35.7%): 20%
Best Response Complete Response (CR), N patients (advanced solid tumors; All treated patients N=40): 0
